In publication doi:10.1101/2021.04.12.439490v1 (biorxiv, 2021):
pKd: −log10 of the molar value.

Target: full-length WDR5, C-terminal NanoLuc fusion (WDR5-C) (Homo sapiens, UniProt P61964)
Assay: NanoBRET tracer titration
Assay type: cell-based

pKd: ~6.00
Compound: CN1CCN(c2ccc(-c3ccc(C(=O)NCCCOCCOCCOCCCNC(=O)CCc4ccc5n4[B-](F)(F)[N+]4=C(c6ccc[nH]6)C=CC4=C5)cc3)cc2NC(=O)c2c[nH]c(=O)cc2C(F)(F)F)CC1 [19c]
